Assay results: article PMC3784060 (Cancer Chemotherapy and Pharmacology, 2013)
Like-named read-outs stand apart in the source and are kept apart here.

Assays:
[1] = tested on: HL-60, MOLT-4, K562; conditions: 24 or 72 vs. 2 h
Method: (§1) Primary leukemia cells for in vitro studies were isolated from BM or PB obtained from AML or ALL patients enrolled on a separate University of Maryland, Baltimore, IRB-approved protocol for tissue collection and not treated on this clinical study. The cells were isolated by gradient centrifugation using LSM (Mediatech) according to the manufacturer’s protocol. Cells were used either fresh or after viable freezing (FBS/10 % DMSO). Primary leukemia cells were cultured in RPMI 1640 (Invitrogen, Grand Island, NY, USA) supplemented with 15 % heat-inactivated FBS (HyClone Laboratories Inc., Red Bank, NJ, USA) and 200 mM L-Glutamine (Invitrogen). Leukemia cell lines HL-60 (AML), MOLT-4 (T cell ALL), and K562 (chronic myelogenous leukemia [CML] in erythroid blast transformation) were purchased from American Type Culture Collection (ATCC, Manassas, VA, USA) and cultured in RPMI 1640 (Invitrogen) supplemented with 10 % heat-inactivated FBS (HyClone Laboratories Inc.) and 200 mM L-Glutamine (Invitrogen).

[2] = tested on: PARP, Mcl-1, p-Rb in primary leukemia samples; assay: Western blot, primary leukemia cells in vitro; type: cell-based, human; conditions: 6-h exposure, ≥20 nM; more prominent at 200 nM and 24 h
Method: (§2) Primary leukemia cells for in vitro studies were isolated from BM or PB obtained from AML or ALL patients enrolled on a separate University of Maryland, Baltimore, IRB-approved protocol for tissue collection and not treated on this clinical study. The cells were isolated by gradient centrifugation using LSM (Mediatech) according to the manufacturer’s protocol. Cells were used either fresh or after viable freezing (FBS/10 % DMSO). Primary leukemia cells were cultured in RPMI 1640 (Invitrogen, Grand Island, NY, USA) supplemented with 15 % heat-inactivated FBS (HyClone Laboratories Inc., Red Bank, NJ, USA) and 200 mM L-Glutamine (Invitrogen). […]
(§3) For Western blot analysis, leukemia cell pellets (primary leukemia cells, HL-60, MOLT-4, K562) were washed with PBS and lysed with RIPA buffer (Sigma-Aldrich, St. Louis, MO, USA) supplemented with Complete Mini™ protease inhibitor and PHOStop™ phosphatase inhibitors (Roche). […] Blots were washed three times, and the signal was detected with Amersham™ ECL™ detection systems (GE Healthcare, Pittsburgh, PA, USA). […] The Western blot signals were measured by densitometry using ImageJ 1.45I software (NIH, Bethesda, USA).

[3] = tested on: Mcl-1, PARP cleavage in HL-60, MOLT-4, K562; assay: Western blot, leukemia cell lines in vitro; type: cell-based, human; conditions: most prominent with 6 and 24 h exposure
Method: as §2, §3

[4] = tested on: Mcl-1, phospho-Rb (Ser807/811), PARP cleavage; assay: pharmacodynamic Western blot on patients' PBMC; type: in vivo, human
Method: For Western blot analysis, PB mononuclear cells (PBMC) were isolated by gradient centrifugation using lymphocyte separation medium (LSM) (Mediatech Inc., Manassas, VA, USA), and protein extracts were prepared and analyzed for the expression of Mcl-1, phospho-Rb (Ser807/811), and PARP cleavage as described below.
For Western blot analysis, leukemia cell pellets (primary leukemia cells, HL-60, MOLT-4, K562) were washed with PBS and lysed with RIPA buffer (Sigma-Aldrich, St. Louis, MO, USA) supplemented with Complete Mini™ protease inhibitor and PHOStop™ phosphatase inhibitors (Roche). Equal amounts of proteins up to 25 μg were separated on 4–12 % NuPAGE precast gels in 1X MOPS or 1X MES buffer (Invitrogen) and electro-blotted to PVDF membranes (Millipore, Billerica, MA, USA). The membranes were blocked with 5 % dry milk in 1X TBS/0.1 % Tween 20 for at least 1 h at room temperature. Blots were incubated with primary antibody (Ab) overnight at 4 °C, washed 3 times in TBS/0.1 % Tween 20, and then incubated with secondary Ab for 1 h at room temperature. Blots were washed three times, and the signal was detected with Amersham™ ECL™ detection systems (GE Healthcare, Pittsburgh, PA, USA). The following primary Abs were used: mouse anti-PARP (BD Pharmingen), rabbit anti-phospho-Rb (Ser807/811) and rabbit anti-Mcl-1 (both from Santa Cruz, Santa Cruz, CA, USA), rabbit anti-caspase 9 p35 and anti-caspase 3 (both from Cell Signaling, Danvers, MA, USA), and mouse anti-β-actin (Sigma-Aldrich). […] Secondary horseradish peroxidase-conjugated anti-mouse or anti-rabbit Abs were from Cell Signaling (Beverly, MA, USA). The Western blot signals were measured by densitometry using ImageJ 1.45I software (NIH, Bethesda, USA).

[5] = cited from earlier work
[6] = tested on: primary AML cells (AML 08); assay: Annexin V/PI apoptosis assay, primary AML cells; type: cell-based, human; conditions: 2, 20, and 200 nM
Method: as §1

In the case of `CCc1cnn2c(NCc3ccc[n+]([O-])c3)cc(N3CCCC[C@H]3CCO)nc12` [Dinaciclib], the “growth inhibitory and apoptosis-inducing effect of prolonged exposure” value [1] is reported as “more potent growth inhibitory and apoptosis-inducing effect”, the “Mcl-1 expression and PARP cleavage” value [2] is reported as “down-regulation of Mcl-1 and induction of PARP cleavage were observed in all 5 primary leukemia samples” and the “Mcl-1 expression and PARP cleavage” value [3] is reported as “down-regulates the expression of the anti-apoptotic protein Mcl-1 independently of caspases and induces PARP cleavage”. The “down-regulation of Mcl-1” value ([4]; PBMC 4 h after end of infusion, 4 specimens) was 34–76%, the PARP cleavage ([4]; PBMC 4 h post-treatment) was “Induction of PARP cleavage was also observed at 4 h” and the Mcl-1 expression ([4]; PBMC 4 h post-treatment, 1 AML and 3 ALL patients) was “decrease in Mcl-1 was seen in all specimens”. The Mcl-1 expression ([4]; PBMC 24 h post-treatment) was “returned to baseline by 24 h”, the “p-Rb (Ser807/811)” value ([4]; PBMC, 2 patients had almost undetectable baseline p-Rb) was “Decline in p-Rb was observed in 1 patient” and the “recommended phase II dose (RPTD)” value ([5]; 2-h infusion on days 1, 8, 15 every 28 days) was 12 mg/m^2. For the same compound, the “recommended phase II dose (RPTD)” value ([5]; 2-h infusion once every 21 days) was 50 mg/m^2, the average dinaciclib concentration ([5]; 8-h continuous infusion, 7.4–50 mg/m^2, preliminary) was 200–1,031 nM and the average dinaciclib concentration ([5]; 24-h continuous infusion, 7.4–14.6 mg/m^2, preliminary) was 82.3 to 184 nM. The “apoptosis (AnnexinV/PI flow cytometry)” value [6] was “induced apoptosis in primary AML cells (AML 08) in a time- and concentration-dependent manner”.
